What all share (format): cell-based
For test [1], the system named is Helicobacter pylori strain HpG27. The test is described as follows: Determination of MIC, broth microdilution, strain HpG27. As to conditions: 72 hours of culture, read-out: Minimum inhibitory concentration against helicobacter pylori HpG27. The protocol: (§1) Anti-Helicobacter pylori activity of each compound is evaluated by a broth microdilution method in an activity experiment, and metronidazole, levofloxacin, clarithromycin and vancomycin used in clinic are selected as positive control drugs.
(§2) Helicobacter pylori strains HpG27, Hp159, Hp129 and Hp26695 provided by Professor Hongkai Bi of Nanjing Medical University. Culture mediums and main reagents: Colombian culture mediums, selective antibiotics (metronidazole, levofloxacin and clarithromycin), serum, and the like.
(§3) The strains were taken out of a refrigerator at −80° C. and placed at room temperature, 200 L of standard strains were accurately sucked, transferred to a solid culture medium, and spread with an L-shaped glass rod, a culture dish loaded with the strains was put into a culture bag, then an AnaeroPack was put into the culture bag, and the culture bag was quickly sealed and then put into a constant temperature incubator at 37° C. to culture for 72 hours. After the end of culture, each strain was identified first, then a lawn on the solid culture medium was scraped off, and the lawn was transferred into 50 mL of liquid culture medium to serve as an original bacterial solution.
(§4) • (1) Sample solutions of the compounds 1 to 9 obtained by separation and purification above were prepared according to a concentration of 1 mg/mL. • (2) In preparation of an MIC plate, a first well was added with 176 μL of culture medium and then added with 3.2 μL of antibacterial drug, and dilution was carried out by multiple proportions to a 7th well; and an 8th well was not added with the drug, but was reserved with 90 μL of culture medium to serve as a control with bacteria but no drug. • (3) In preparation of a bacterial solution, Helicobacter pylori growing at a logarithmic phase on a solid plate was made into a bacterial suspension with a BHI culture medium, an OD600 value of concentration of the bacterial suspension was adjusted to be 0.3 (1×10^8 CFU/mL), and the bacterial suspension was diluted by 10 times to reach 1×10^7 CFU/mL for later use. • (4) In inoculation, 10 μL of bacterial solution was added into the 1st to 8th wells (a concentration of the bacterial solution in each well was about 1.0×10^6 CFU/mL). Results were judged after 72 hours of culture. […] The test was only meaningful when the bacteria in the 8th well of the positive control well (without antibiotics) grew obviously. When there was a single drift in a microdilution method, the highest drug concentration capable of inhibiting the growth of bacteria should be recorded. If there were many drifts, the results should not be reported, and the test should be repeated.
In general terms: Dilution methods test growth across graded concentrations, often in twofold steps.

Test [2] relates to Helicobacter pylori strain Hp129. The experiment in a line: Determination of MIC, broth microdilution, strain Hp129. As to conditions: 72 hours of culture, (R) beside control drug values, read-out: Minimum inhibitory concentration against helicobacter pylori Hp129. How it is done:
as §1, §2, §3, §4

Test [3] concerns Helicobacter pylori strain Hp26695. The experiment in a line: Determination of MIC, broth microdilution, strain Hp26695. Conditions: 72 hours of culture, read-out: Minimum inhibitory concentration against helicobacter pylori Hp26695. How it is done: as §1, §2, §3, §4
Test [4] deals with drug-resistant and sensitive Helicobacter pylori. The test is described as follows: Determination of MIC, broth microdilution, summary over strains. As to conditions: two kinds of drug-resistant and sensitive Helicobacter pylori; range over strains. How it is done:
as §1, §2, §3, §4

The test system of test [5] is Helicobacter pylori strain Hp159. The test is described as follows: Determination of MIC, broth microdilution, strain Hp159. As to conditions: 72 hours of culture, (R) beside control drug values, read-out: Minimum inhibitory concentration against helicobacter pylori Hp159. The protocol: as §1, §2, §3, §4

The structures appear in SMILES notation. Converted amounts (≈) assume the structure as drawn.

With `CC(C)=CCc1c(CCc2ccc(O)cc2)cc(O)cc1OC(=O)C(C)C` [Compound 1], the MIC in test [1] was 8 µg/mL (≈ 21.7 µM); in test [2], 8 µg/mL (≈ 21.7 µM); in test [3], 8 µg/mL (≈ 21.7 µM); in test [4], 4 to 8 µg/mL (≈ 10.9 to 21.7 µM); in test [5], 8 µg/mL (≈ 21.7 µM).
In the case of `CC(=O)Oc1cc(O)c(CC=C(C)C)c(CCc2ccc(O)cc2)c1CC=C(C)C` [Compound 7, uralensisol M], the MIC in test [1] is 8 µg/mL (≈ 19.6 µM); in test [2] it was 8 µg/mL (≈ 19.6 µM); in test [3], 8 µg/mL (≈ 19.6 µM); in test [4] it was 4 to 8 µg/mL (≈ 9.79 to 19.6 µM); in test [5] it was 8 µg/mL (≈ 19.6 µM).
For the compound `COc1cc(O)c(CC=C(C)C)c(CCc2ccc(O)cc2)c1` [Compound 3, uralensisol I], the MIC in test [1] is 4 µg/mL (≈ 12.8 µM); in test [2] it was 8 µg/mL (≈ 25.6 µM); in test [3], 4 µg/mL (≈ 12.8 µM); in test [4] it was 4 to 8 µg/mL (≈ 12.8 to 25.6 µM); in test [5] it was 8 µg/mL (≈ 25.6 µM).
For the compound `CC(C)=CCc1c(O)cc(O)c(CC=C(C)C)c1CCc1ccc(O)cc1` [Compound 6, uralensisol L], the MIC in test [1] was 4 µg/mL (≈ 10.9 µM); in test [2], 8 µg/mL (≈ 21.8 µM); in test [3], 8 µg/mL (≈ 21.8 µM); in test [4] it was 4 to 8 µg/mL (≈ 10.9 to 21.8 µM); in test [5], 8 µg/mL (≈ 21.8 µM).
Take `CC(C)=CCc1cc(CCc2cc(O)cc(O)c2CC=C(C)C)ccc1O` [Compound 9, uralensisol 0]: the MIC was 8 µg/mL (≈ 21.8 µM) in test [1]; 8 µg/mL (≈ 21.8 µM) in test [2]; 8 µg/mL (≈ 21.8 µM) in test [3]; 4 to 8 µg/mL (≈ 10.9 to 21.8 µM) in test [4]; 8 µg/mL (≈ 21.8 µM) in test [5].
Consider `Cc1ncc([N+](=O)[O-])n1CCO` [MTZ, metronidazole, reference compound], for which the MIC in test [1] is 2 µg/mL (≈ 11.7 µM); in test [2] it was 32 µg/mL (≈ 187 µM); in test [3], 1 µg/mL (≈ 5.84 µM); in test [5], 16 µg/mL (≈ 93.5 µM).
`O=Cc1c(O)cc(O)cc1CCc1ccc(O)cc1` [Compound 8, uralensisol N]: the MIC in test [1], in test [2], in test [3] and in test [5] was above 16 µg/mL in each case.
Take `COc1c(O)cc(CCc2cc(O)cc(OC(C)=O)c2CC=C(C)C)cc1CC=C(C)C` [Compound 5, uralensisol K]: the MIC in test [1], in test [2], in test [3] and in test [5] was above 16 µg/mL throughout.
As for `CC[C@H]1OC(=O)[C@H](C)[C@@H](O[C@H]2C[C@@](C)(OC)[C@@H](O)[C@H](C)O2)[C@H](C)[C@@H](O[C@@H]2O[C@H](C)C[C@H](N(C)C)[C@H]2O)[C@](C)(OC)C[C@@H](C)C(=O)[C@H](C)[C@@H](O)[C@]1(C)O` [CLR, clarithromycin, reference compound], the MIC in test [1] was 0.008 µg/mL (≈ 0.0107 µM); in test [2], 1 µg/mL (≈ 1.34 µM); in test [3], 0.008 µg/mL (≈ 0.0107 µM); in test [5], 2 µg/mL (≈ 2.67 µM).
`C[C@H]1COc2c(N3CCN(C)CC3)c(F)cc3c(=O)c(C(=O)O)cn1c23` [LVX, levofloxacin, reference compound]: the MIC in test [1] worked out at 0.25 µg/mL (≈ 0.692 µM); in test [2], 8 µg/mL (≈ 22.1 µM); in test [3] it was 0.25 µg/mL (≈ 0.692 µM); in test [5], 8 µg/mL (≈ 22.1 µM).
`CC(=O)Oc1cc(O)cc(CCc2ccc(O)c(CC=C(C)C)c2)c1CC=C(C)C` [Compound 4, uralensisol J]: the MIC in test [1], in test [2], in test [3] and in test [5] was above 16 µg/mL in each case.
Turning to `CCC(C)C(=O)Oc1cc(O)cc(CCc2ccc(O)cc2)c1CC=C(C)C` (centres unmarked) [Compound 2], the MIC in test [1], in test [2], in test [3] and in test [5] was above 16 µg/mL throughout.
